Test results published in PubChem BioAssay (NCI).
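1) Cells in 96-well plates. 2) Compound, 48 h, 5 concentrations. 3) Linear interpolation between surrounding doses. 4) Unreached endpoint = highest concentration. GI50: concentration for 50% inhibition of growth. At the TGI there is no net growth.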

Legend:
Assay in all cases: growth of human tumour cells (NCI), 48 h
[1] = test system: SNB-75 CNS
[2] = test system: EKVX NSCLC
[3] = test system: KM20L2 colon
[4] = test system: CCRF-CEM leukemia
[5] = test system: HCT-15 colon
[6] = test system: HT29 colon
[7] = test system: CAKI-1 renal
[8] = test system: U251 CNS
[9] = test system: SN12C renal
[10] = test system: UACC-257 melanoma
[11] = test system: SK-OV-3 ovarian
[12] = test system: HCT-116 colon
[13] = test system: LOX IMVI melanoma
[14] = test system: OVCAR-4 ovarian

Compound | TGI [1] [µM] | TGI [2] [µM] | TGI [3] [µM] | TGI [4] [µM] | TGI [5] [µM] | TGI [6] [µM] | TGI [7] [µM] | TGI [8] [µM] | TGI [9] [µM] | TGI [10] [µM] | TGI [11] [µM] | TGI [12] [µM] | TGI [13] [µM] | TGI [14] [µM] | GI50 [1] [µM] | GI50 [5] [µM] | GI50 [8] [µM] | GI50 [9] [µM] | GI50 [11] [µM] | GI50 [14] [µM]
C=C1CC[C@@H](Br)C(C)(C)[C@]12CCC(C)(O)C(Cl)C2 (stereo not given in full) | 78.1 | 40.2 | 32.9 | 47.9 | 30.4 | 33.4 | 32 | 29.7 | 30 | 32.4 | 37.4 | 32.3 | 35.2 | – | – | – | – | – | – | –
O=C(CCl)NC(Cc1ccc(F)cc1)C(=O)O (stereo not given) | > 100 | > 100 | > 100 | > 100 | > 100 | > 100 | > 100 | > 100 | > 100 | > 100 | > 100 | > 100 | > 100 | > 100 | – | – | – | – | – | –
CC(=O)O[C@H]1CC[C@@]2(C)C(=CC[C@@H]3[C@@H]2CC[C@]2(C)Nc4c(cnn4S(C)(=O)=O)C[C@@H]32)C1 | > 100 | – | – | > 100 | > 100 | 57 | > 100 | > 100 | > 100 | – | > 100 | – | – | – | – | – | – | – | – | –
CC1CCC(O)(C(C)(C(=O)O)c2ccccc2)CC1 (stereo not given) | – | > 100 | – | > 100 | > 100 | > 100 | > 100 | > 100 | > 100 | > 100 | – | > 100 | > 100 | > 100 | – | – | – | – | – | –
CCOC(=O)[C@H]1Nc2c(cccc2[N+](=O)[O-])[C@H]2OCC[C@@H]12 | > 100 | > 100 | > 100 | – | > 100 | > 100 | > 100 | > 100 | > 100 | 86.1 | – | > 100 | > 100 | > 100 | – | – | – | – | – | –
C/C(=N\Oc1cc(Cl)ncn1)c1ccccn1 | > 100 | > 100 | – | > 100 | – | > 100 | 57.5 | > 100 | > 100 | > 100 | > 100 | > 100 | > 100 | > 100 | – | – | – | – | – | –
CCOC(=O)Nc1cc2c(c(N)n1)N=C(c1ccccc1)[C@H](C)N2 | – | > 100 | < 0.0001 | 0.0464 | 17.3 | – | – | – | > 100 | – | 78.8 | 0.0173 | 17.7 | > 100 | 17.9 | < 0.0001 | < 0.0001 | < 0.0001 | < 0.0001 | 16.2
Cc1ccc([N+](=O)[O-])cc1NC(=O)C(=O)C(C(=O)c1ccccc1F)C1OC(=O)c2ccccc21 (stereo not given) | > 100 | > 100 | > 100 | > 100 | > 100 | > 100 | > 100 | 43.6 | > 100 | > 100 | > 100 | 91.8 | 90.3 | > 100 | – | – | – | – | – | –
O=C(O)CCSCc1ccc(I)cc1 | > 100 | > 100 | – | > 100 | > 100 | > 100 | > 100 | > 100 | > 100 | > 100 | > 100 | > 100 | > 100 | > 100 | – | – | – | – | – | –
Oc1c2c(c3c4c1N=CC=4CCN=3)-c1c(Br)cc(Br)cc1CCN2 | 22.6 | 17.4 | 8.2 | 6.7 | 15.4 | 7.66 | 51.1 | 12.2 | 5.86 | 2.86 | 24.9 | 4.47 | 4.06 | 6.23 | – | – | – | – | – | –
NC(=S)Nc1cc(Cl)ccc1Cl | > 100 | > 100 | > 100 | > 100 | > 100 | > 100 | > 100 | > 100 | > 100 | > 100 | > 100 | > 100 | > 100 | > 100 | – | – | – | – | – | –
